In patent US11242361B2 (Proteostasis Therapeutics, Inc., priority 2013, dated 2022):

Molecular target: USP14 (Homo sapiens (Human), UniProt P54578)
Assay: USP14 Inhibition Assay
Assay type: biochemical
Details: average value from a minimum of two experimental determinations, read-out: IC50 Category
Experimental: Example 17: USP14 Inhibition Assay
“I” in the Table below designates an IC50 of >5 μM, “II” in the Table below designates and IC50 between 0.5 and 5 μM, and “III” designates an IC50<0.5 μM. The IC50 values in the Table below represent the average value from a minimum of two experimental determinations.

Chain of USP14 (P54578 whole entry, looked up): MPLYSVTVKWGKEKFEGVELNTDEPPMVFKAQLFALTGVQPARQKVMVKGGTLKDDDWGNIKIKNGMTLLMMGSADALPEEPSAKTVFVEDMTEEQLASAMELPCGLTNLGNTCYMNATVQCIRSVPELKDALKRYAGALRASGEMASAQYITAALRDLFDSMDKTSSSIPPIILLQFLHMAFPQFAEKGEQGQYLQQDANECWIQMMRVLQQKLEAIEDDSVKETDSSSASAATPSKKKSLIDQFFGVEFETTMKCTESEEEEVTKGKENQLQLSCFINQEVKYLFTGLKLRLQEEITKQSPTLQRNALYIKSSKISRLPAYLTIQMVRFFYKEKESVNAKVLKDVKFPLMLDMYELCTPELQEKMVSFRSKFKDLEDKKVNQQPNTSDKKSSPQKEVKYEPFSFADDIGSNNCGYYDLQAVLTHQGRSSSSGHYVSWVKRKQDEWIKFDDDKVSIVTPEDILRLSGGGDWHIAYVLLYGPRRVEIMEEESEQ

Row | SMILES | IC50
1 | COc1cccc2c1c(C(=O)CN1CCCCC1)c(C)n2-c1ccc(C#N)cc1 [Compound 167] | < 500 nM
2 | COc1cnc2c(C(=O)CN3CCC(CN)CC3)c(C)n(-c3ccc(C#N)cc3)c2c1 [Compound 369] | < 500 nM
3 | Cc1c(C(=O)CN2CCCCC2)c2c(F)cccc2n1-c1ccc(C#N)cc1 [Compound 168] | < 500 nM
4 | Cc1c(C(=O)CN2CC=CC2)c2ncc(Br)cc2n1-c1ccc(C#N)cc1 [Compound 315] | < 500 nM
5 | O=C(CN1CCCCC1)c1cn(-c2ccc(Cl)cc2)c2cc(O)ccc12 [Compound 120] | > 5000 nM
6 | COC(=O)c1ccc2c(C(O)CN3CCCCC3)c(C)n(-c3ccc(Cl)cc3)c2c1 (stereo not drawn) [Compound 126, Methyl 1-(4-Chlorophenyl)-3-(1-hydroxy-2-(piperidin-1-yl)ethyl)-2-methyl-1H-indole-6-carboxylate] | > 5000 nM
7 | Cc1c(C(=O)CN2CCCCC2)c2ccc(C(C)C)cc2n1-c1ccc(C#N)cc1 [Compound 180, 4-(6-Isopropyl-2-methyl-3-(2-(piperidin-1-yl)acetyl)-1H-indol-1-yl)benzonitrile] | < 500 nM
8 | Cc1c(C(=O)CN2CCNC(=O)C2)c2ncc(Br)cc2n1-c1ccc(C#N)cc1 [Compound 344] | > 5000 nM
9 | Cc1c(C(=O)CN2CC[C@H](O)[C@H](O)C2)c2ncc(Br)cc2n1-c1ccc(C#N)cc1 [Compound 356] | < 500 nM
10 | Cc1cnc2c(C(=O)CN3CCC(F)CC3)c(C)n(-c3ccc(C#N)cc3)c2c1 [Compound 190] | < 500 nM
11 | COc1cnc2c(C(=O)CN3CCCCC3)c(C)n(-c3ccc(C#N)cc3)c2c1 [Compound 326, 4-(6-Methoxy-2-methyl-3-(2-(piperidin-1-yl)acetyl)-1H-pyrrolo[3,2-b]pyridin-1-yl)benzonitrile] | < 500 nM
12 | Cc1c(C(=O)CC2CCCCC2)c2ncccc2n1-c1ccc(C#N)cc1 [Compound 116] | > 5000 nM
13 | Cc1c(C(=O)CN2CCCCC2)c2ncccc2n1-c1ccc(C#N)cc1 [Compound 162, 4-(2-Methyl-3-(2-(piperidin-1-yl)acetyl)-1H-pyrrolo[3,2-b]pyridin-1-yl)benzonitrile] | < 500 nM
14 | Cc1c(C(=O)CN2CCCCC2)c2ccc(CC(=O)O)cc2n1-c1ccc(C#N)cc1 [Compound 198, 2-(1-(4-Cyanophenyl)-2-methyl-3-(2-(piperidin-1-yl)acetyl)-1H-indol-6-yl)acetic Acid] | < 500 nM
15 | Cc1c(C(=O)CN2CCCCC2)c2ccncc2n1-c1ccc(C#N)cc1 [Compound 144, 4-(2-Methyl-3-(2-(piperidin-1-yl)acetyl)-1H-pyrrolo[2,3-c]pyridin-1-yl)benzonitrile] | 500 to 5000 nM
16 | Cc1c(C(=O)CN2CC3(COC3)C2)c2ncc(Br)cc2n1-c1ccc(C#N)cc1 [Compound 343] | > 5000 nM
17 | Cc1c(C(=O)CN2CCC(O)CC2)c2ccccc2n1-c1ccc(Cl)cc1 [Compound 86] | < 500 nM
18 | Cc1c(C(=O)CN2CC=CCC2)c2ncc(Br)cc2n1-c1ccc(C#N)cc1 [Compound 314] | 500 to 5000 nM
19 | CCCC(=O)CCc1cnc2c(C(=O)CN3CCCCC3)c(C)n(-c3ccc(Cl)cc3)c2c1 [Compound 387] | < 500 nM
20 | Cc1c(C(=O)CN2CCC2)c2ncc(Br)cc2n1-c1ccc(C#N)cc1 [Compound 325] | > 5000 nM
21 | Cc1c(C(=O)CN2CC[C@H](O)[C@@H](O)C2)c2ncc(Br)cc2n1-c1ccc(C#N)cc1 [Compound 328] | > 5000 nM
22 | Cc1c(C(=O)CN2CCCCC2)c2ncc(CCN3CCCC3)cc2n1-c1ccc(Cl)cc1 [Compound 346, 1-(1-(4-Chlorophenyl)-2-methyl-6-(2-(pyrrolidin-1-yl)ethyl)-1H-pyrrolo[3,2-b]pyridin-3-yl)-2-(piperidin-1-yl)ethan-1-one] | < 500 nM
23 | Cc1c(C(=O)CN2CCC(O)CC2)c2ccccc2n1-c1cccnc1 [Compound 395] | > 5000 nM
24 | CCN(CC)C(=O)CCc1cc2c(nc1C)c(C(=O)CN1CCCCC1)c(C)n2-c1ccc(C#N)cc1 [Compound 204, 3-(1-(4-Cyanophenyl)-2,5-dimethyl-3-(2-(piperidin-1-yl)acetyl)-1H-pyrrolo[3,2-b]pyridin-6-yl)-N,N-diethylpropanamide] | < 500 nM
25 | Cc1c(C(=O)CN2CCC(O)CC2)c2ncc(CCNS(C)(=O)=O)cc2n1-c1ccc(Cl)cc1 [Compound 342, N-(2-(1-(4-Chlorophenyl)-3-(2-(4-hydroxypiperidin-1-yl)acetyl)-2-methyl-1H-pyrrolo[3,2-b]pyridin-6-yl)ethyl)methanesulfonamide] | < 500 nM
26 | Cc1c(C(=O)CN2CCCCC2)c2cc(Oc3ccccc3)ccc2n1-c1ccc(Cl)cc1 [Compound 145] | 500 to 5000 nM
27 | Cc1c(C(O)CN2CCCCC2)c2ccccc2n1-c1ccc(Cl)cc1 (stereo not drawn) [Compound 106, 1-(1-(4-Chlorophenyl)-2-methyl-1H-indol-3-yl)-2-(piperidin-1-yl)ethan-1-ol] | > 5000 nM

Row | SMILES | IC50
28 | Cc1c(C(=O)CN2[C@H](C)CCC[C@H]2C)c2ncc(Br)cc2n1-c1ccc(C#N)cc1 [Compound 373] | 500 to 5000 nM
29 | Cc1c(C(=O)CN2[C@@H](C)CCC[C@@H]2C)c2ncc(Br)cc2n1-c1ccc(C#N)cc1 [Compound 374] | 500 to 5000 nM
30 | Cc1c(C(=O)CN2CCC(CN(C)C)CC2)c2ncc(Br)cc2n1-c1ccc(C#N)cc1 [Compound 352] | < 500 nM
31 | COc1cnc2c(C(=O)CN3CCC(CN(C)C)CC3)c(C)n(-c3ccc(C#N)cc3)c2c1 [Compound 370] | < 500 nM
32 | CCOC(=O)C[C@@H](C)c1cnc2c(C(=O)CN3CCCCC3)c(C)n(-c3ccc(C#N)cc3)c2c1 [Compound 350, Ethyl (R)-3-(1-(4-Cyanophenyl)-2-methyl-3-(2-(piperidin-1-yl)acetyl)-1H-pyrrolo[3,2-b]pyridin-6-yl)butanoate] | < 500 nM
33 | O=C(CN1CCCCC1)c1c(C2CC2)n(-c2ccc(Cl)cc2)c2ccccc12 [Compound 399] | > 5000 nM
34 | Cc1ccc2c(C(=O)CN3CCCCC3)c(C)n(-c3ccc(C#N)cc3)c2c1 [Compound 169, 4-(2,6-Dimethyl-3-(2-(piperidin-1-yl)acetyl)-1H-indol-1-yl)benzonitrile] | < 500 nM
35 | Cc1c(C(=O)CN2CCCCC2)c2ccc(OCC(N)=O)cc2n1-c1ccc(Cl)cc1 [Compound 179, 2-((1-(4-Chlorophenyl)-2-methyl-3-(2-(piperidin-1-yl)acetyl)-1H-indol-6-yl)oxy)acetamide] | < 500 nM
36 | Cc1c(C(=O)CN2CCCCC2)c2ccccc2n1-c1ccc(Cl)cc1 [Compound 87] | < 500 nM
37 | CCOC(=O)Cc1ccc2c(C(=O)CN3CCCCC3)c(C)n(-c3ccc(C#N)cc3)c2c1 [Compound 197] | < 500 nM
38 | Cc1c(C(=O)CN2CCC(O)(C(F)(F)F)CC2)c2ccccc2n1-c1ccc(Cl)cc1 [Compound 390] | > 5000 nM
39 | CC(=O)OCc1ccc2c(C(=O)CN3CCCCC3)cn(-c3ccc(Cl)cc3)c2c1 [Compound 118, (1-(4-Chlorophenyl)-3-(2-(piperidin-1-yl)acetyl)-1H-indol-6-yl)methyl Acetate] | > 5000 nM
40 | CC(C)c1c(C(=O)CN2CCCCC2)c2ncccc2n1-c1ccc(C#N)cc1 [Compound 336] | > 5000 nM
41 | Cc1cnc2c(C(=O)CN3CCCCC3)c(C)n(-c3ccc(C#N)cc3)c2c1 [Compound 184, 4-(2,6-Dimethyl-3-(2-(piperidin-1-yl)acetyl)-1H-pyrrolo[3,2-b]pyridin-1-yl)benzonitrile] | < 500 nM
42 | Cc1cc2c(nc1C)c(C(=O)CN1CCCCC1)c(C)n2-c1ccc(C#N)cc1 [Compound 195] | < 500 nM
43 | Cc1c(C(=O)CN2CCCCC2)c2cc(NC(=O)C(C)(C)C)ccc2n1-c1ccc(C#N)cc1 [Compound 187, N-(1-(4-Cyanophenyl)-2-methyl-3-(2-(piperidin-1-yl)acetyl)-1H-indol-5-yl)pivalamide] | < 500 nM
44 | Cc1c(C(=O)CN2CCC(O)CC2)c2ccc(F)cc2n1-c1ccc(Cl)cc1 [Compound 394] | > 5000 nM
45 | O=C(CN1CCCCC1)c1cn(-c2ccc(Cl)cc2)c2cc(CO)ccc12 [Compound 115, 1-(1-(4-Chlorophenyl)-6-(hydroxymethyl)-1H-indol-3-yl)-2-(piperidin-1-yl)ethan-1-one] | > 5000 nM
46 | CC(=O)N(C)c1ccc2c(c1)c(C(=O)CN1CCCCC1)c(C)n2-c1ccc(C#N)cc1 [Compound 196, N-(1-(4-Cyanophenyl)-2-methyl-3-(2-(piperidin-1-yl)acetyl)-1H-indol-5-yl)-N-methylacetamide] | < 500 nM
47 | CCOC(=O)CCc1cc2c(nc1C)c(C(=O)CN1CCCCC1)c(C)n2-c1ccc(C#N)cc1 [Compound 200, Ethyl 3-(1-(4-Cyanophenyl)-2,5-dimethyl-3-(2-(piperidin-1-yl)acetyl)-1H-pyrrolo[3,2-b]pyridin-6-yl)propanoate] | < 500 nM
48 | Cc1c(C(=O)CN2CCC(O)CC2)c2ncccc2n1-c1ccc(Cl)cc1 [Compound 388] | < 500 nM
49 | O=C(CN1CCCCC1)c1cn(-c2ccc(Cl)cc2)c2ccccc12 [Compound 31] | > 5000 nM
50 | Cc1c(C(=O)CN2CCCCC2)c2nc(-n3ccnn3)ccc2n1-c1ccc(C#N)cc1 [Compound 209, 4-(2-Methyl-3-(2-(piperidin-1-yl)acetyl)-5-(1H-1,2,3-triazol-1-yl)-1H-pyrrolo[3,2-b]pyridin-1-yl)benzonitrile] | < 500 nM
51 | CCNC(=O)Cc1cnc2c(C(=O)CN3CCCCC3)c(C)n(-c3ccc(C#N)cc3)c2c1 [Compound 383, 2-(1-(4-Cyanophenyl)-2-methyl-3-(2-(piperidin-1-yl)acetyl)-1H-pyrrolo[3,2-b]pyridin-6-yl)-N-ethylacetamide] | < 500 nM
52 | Cc1c(C(=O)CN2CCCC2(C)C)c2ncc(Br)cc2n1-c1ccc(C#N)cc1 [Compound 310] | < 500 nM
53 | Cc1c(C(=O)CN2CC[C@@H](O)[C@@H](O)C2)c2ncc(Br)cc2n1-c1ccc(C#N)cc1 [Compound 355] | < 500 nM
54 | CNCc1ccc2c(C(=O)CN3CCCCC3)cn(-c3ccc(Cl)cc3)c2c1 [Compound 119, 1-(1-(4-Chlorophenyl)-6-((methylamino)methyl)-1H-indol-3-yl)-2-(piperidin-1-yl)ethan-1-one] | > 5000 nM
